Values quoted from earlier work in patent publication US10232037B2, “Supramolecular hydrogel of fMLF-based molecules and use thereof” (BRANDEIS UNIVERSITY, priority 2014, dated 2019).

Tested on: neutrophils
Conditions: aqueous solution, literature

In the case of `CSCC[C@H](NC=O)C(=O)N[C@@H](CC(C)C)C(=O)N[C@@H](Cc1ccccc1)C(=O)O` [fMLF, N-formyl-L-methionyl-L-leucyl-L-phenylalanine], the “duration of neutrophil accumulation effect” value is listed as 2 to 6 h.
